Biological target: T1, hTRPM8 (Homo sapiens, UniProt Q7Z2W7)
T1 construct: expressed in transfected cells
Assay: Assay on TRPM8 modulators: calcium imaging (Fluo-4, Flexstation) in HEK293 cell line stably expressing hTRPM8
Assay type: cell-based
Conditions: HEK293 cells stably expressing hTRPM8; calcium influx, Fluo-4, Flexstation 3; sigmoidal dose-response fit
How it was run: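 HEK293 cells stably expressing hTRPM8 were loaded with Fluo-4 AM plus probenecid and kept in HEPES buffer, pH 7.4. Calcium influx to serially diluted compounds was recorded for 120 s. Maximal activation was referenced to solvent control and 31.6 μM menthol, with EC values from sigmoidal dose-response fits.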

T1 sequence (Q7Z2W7 whole entry): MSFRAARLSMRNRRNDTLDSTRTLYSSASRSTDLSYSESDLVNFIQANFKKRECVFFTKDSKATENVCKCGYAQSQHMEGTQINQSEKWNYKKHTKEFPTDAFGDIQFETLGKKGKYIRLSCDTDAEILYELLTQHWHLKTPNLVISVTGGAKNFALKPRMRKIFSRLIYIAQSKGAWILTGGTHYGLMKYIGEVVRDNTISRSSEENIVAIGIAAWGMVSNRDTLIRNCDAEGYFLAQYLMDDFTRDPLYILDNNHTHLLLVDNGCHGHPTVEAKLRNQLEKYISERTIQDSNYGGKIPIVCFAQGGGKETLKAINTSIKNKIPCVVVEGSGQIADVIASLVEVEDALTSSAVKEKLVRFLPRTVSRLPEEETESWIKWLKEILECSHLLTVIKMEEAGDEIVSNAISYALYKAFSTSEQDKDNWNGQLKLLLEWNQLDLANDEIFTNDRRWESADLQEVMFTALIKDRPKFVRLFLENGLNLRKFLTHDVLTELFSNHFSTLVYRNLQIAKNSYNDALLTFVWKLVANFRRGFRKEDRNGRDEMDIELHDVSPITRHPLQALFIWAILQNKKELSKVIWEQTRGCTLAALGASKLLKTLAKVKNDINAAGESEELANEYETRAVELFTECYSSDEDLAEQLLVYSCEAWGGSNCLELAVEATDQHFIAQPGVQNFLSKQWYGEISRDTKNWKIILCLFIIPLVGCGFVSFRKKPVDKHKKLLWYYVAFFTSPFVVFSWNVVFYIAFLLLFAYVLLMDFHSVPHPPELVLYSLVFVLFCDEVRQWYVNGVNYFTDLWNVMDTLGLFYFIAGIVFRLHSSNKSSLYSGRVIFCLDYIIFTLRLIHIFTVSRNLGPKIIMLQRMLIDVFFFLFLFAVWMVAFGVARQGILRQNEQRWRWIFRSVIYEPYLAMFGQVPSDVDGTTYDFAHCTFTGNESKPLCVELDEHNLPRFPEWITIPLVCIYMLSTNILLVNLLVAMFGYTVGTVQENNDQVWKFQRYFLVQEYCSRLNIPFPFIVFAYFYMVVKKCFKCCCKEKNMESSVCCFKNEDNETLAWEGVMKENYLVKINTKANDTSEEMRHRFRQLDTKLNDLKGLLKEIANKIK

SMILES | EC50 [nM]
CSC(C)C(=O)N1CCCCC1c1ncc(-c2ccc(C)c(F)c2)[nH]1 (stereo not drawn) [Compound 65, 1-(2-(5-(3-fluoro-4-methylphenyl)-1H-imidazol-2-yl)piperidin-1-yl)-2-(methylthio)propan-1-one] | < 50
COCCc1ccc(-c2cnc(C3CCCCN3C(=O)C(C)SC)[nH]2)cc1 (stereo not drawn) [Compound 70, 1-(2-(5-(4-(2-methoxyethyl)phenyl)-1H-imidazol-2-yl)piperidin-1-yl)-2-(methylthio)propan-1-one] | 50 to 300
CSC(C)C(=O)N1CCCCC1c1ncc(-c2ccc(C)c(C)c2)[nH]1 (stereo not drawn) [Compound 63, 1-(2-(5-(3,4-dimethylphenyl)-1H-imidazol-2-yl)piperidin-1-yl)-2-(methylthio)propan-1-one] | < 50
CSC(C)C(=O)N1CCCCC1c1nc(-c2ccccc2)no1 (stereo not drawn) [Compound 105, 2-(methylthio)-1-(2-(3-phenyl-1,2,4-oxadiazol-5-yl)piperidin-1-yl)propan-1-one] | 300 to 1000
CSC(C)C(=O)N1CCCCC1c1nc(-c2csc(C)c2)c[nH]1 (stereo not drawn) [Compound 110, 2-(methylthio)-1-(2-(4-(5-methylthiophen-3-yl)-1H-imidazol-2-yl)piperidin-1-yl)propan-1-one] | < 50
CSC(C)C(=O)N1CCCCC1c1ncc(-c2ccc(N(C)C)cc2)[nH]1 (stereo not drawn) [Compound 72, 1-(2-(5-(4-(dimethylamino)phenyl)-1H-imidazol-2-yl)piperidin-1-yl)-2-(methylthio)propan-1-one] | 50 to 300
CSC(C)C(=O)N1CCCCC1c1nc(-c2ccc(C)o2)c[nH]1 (stereo not drawn) [Compound 43, 1-(2-(4-(5-methylfuran-2-yl)-1H-imidazol-2-yl)piperidin-1-yl)-2-(methylthio)propan-1-one] | < 50
CC[C@H](C)C(=O)N1CCCC[C@@H]1c1ncc(-c2ccc(C)cc2)[nH]1 [Compound 165, (S)-2-methyl-1-((R)-2-(5-(p-tolyl)-1H-imidazol-2-yl)piperidin-1-yl)butan-1-one] | < 50
CS[C@@H](C)C(=O)N1CCCC[C@H]1c1ncc(-c2ccc(C)cc2)[nH]1 [Compound 13, (S)-2-(methylthio)-1-((S)-2-(5-(p-tolyl)-1H-imidazol-2-yl)piperidin-1-yl)propan-1-one] | 50 to 300
Cc1ccc(-c2cnc(C3CCCCN3C(=O)C3CC3(C)C)[nH]2)cc1 (stereo not drawn) [Compound 193, (2,2-dimethylcyclopropyl)(2-(5-(p-toly)-1H-imidazol-2-yl)piperidin-1-yl)methanone] | < 50
CSC(C)C(=O)N1CCCCC1c1ncc(-c2ccc(F)cc2F)[nH]1 (stereo not drawn) [Compound 54, 1-(2-(5-(2,4-difluorophenyl)-1H-imidazol-2-yl)piperidin-1-yl)-2-(methylthio)propan-1-one] | < 50
CSC(C)C(=O)N1CCCCC1c1ncc(-c2cc(F)ccc2F)[nH]1 (stereo not drawn) [Compound 55, 1-(2-(5-(2,5-difluorophenyl)-1H-imidazol-2-yl)piperidin-1-yl)-2-(methylthio)propan-1-one] | < 50
CSC(C)C(=O)N1CCCCC1c1nc(-c2ccc3c(c2)OCC3)c[nH]1 (stereo not drawn) [Compound 19, 1-(2-(4-(2,3-dihydrobenzofuran-6-yl)-1H-imidazol-2-yl)piperidin-1-yl)-2-(methylthio)propan-1-one] | < 50
C=C(C)C(C)(C)C(=O)N1CCCCC1c1ncc(-c2ccc(C)cc2)[nH]1 (stereo not drawn) [Compound 140, 2,2,3-trimethyl-1-(2-(5-(p-tolyl)-1H-imidazol-2-yl)piperidin-1-yl)but-3-en-1-one] | < 50
CSC(C)C(=O)N1CCCCC1c1nc(-c2cncc(C)c2)c[nH]1 (stereo not drawn) [Compound 44, 1-(2-(4-(5-methylpyridin-3-yl)-1H-imidazol-2-yl)piperidin-1-yl)-2-(methylthio)propan-1-one] | 50 to 300
Cc1ccc(-c2cnc(C3CCCCN3C(=O)C(C)c3ccoc3)[nH]2)cc1 (stereo not drawn) [Compound 99, 2-(furan-3-yl)-1-(2-(5-(p-tolyl)-1H-imidazol-2-yl)piperidin-1-yl)propan-1-one] | < 50
CCCc1ccc(-c2cnc(C3CCCCN3C(=O)C(C)SC)[nH]2)cc1 (stereo not drawn) [Compound 125, 2-(methylthio)-1-(2-(5-(4-propylphenyl)-1H-imidazol-2-yl)piperidin-1-yl)propan-1-one] | < 50
CCC(C)C(=O)N1CCCCC1c1ncc(-c2ccc(CC#N)cc2)[nH]1 (stereo not drawn) [Compound 197, 2-(4-(2-(1-(2-methylbutanoyl)piperidin-2-yl)-1H-imidazol-5-yl)phenyl)acetonitrile] | < 50
CSC(C)C(=O)N1CCCCC1c1nc(-c2ccsc2)c[nH]1 (stereo not drawn) [Compound 117, 2-(methylthio)-1-(2-(4-(thiophen-3-yl)-1H-imidazol-2-yl)piperidin-1-yl)propan-1-one] | 50 to 300
CSC(C)C(=O)N1CCCCC1c1ncc(-c2ccccc2)o1 (stereo not drawn) [Compound 138, 2-(methylthio)-1-(2-(5-phenyloxazol-2-yl)piperidin-1-yl)propan-1-one] | 300 to 1000
CSC(C)C(=O)N1CCCCC1c1ncc(-c2ccc(C)cc2)s1 (stereo not drawn) [Compound 134, 2-(methylthio)-1-(2-(5-(p-tolyl)thiazol-2-yl)piperidin-1-yl)propan-1-one] | < 50
CSC(C)C(=O)N1CCCCC1c1nc(-c2ccc(NS(C)(=O)=O)cc2)c[nH]1 (stereo not drawn) [Compound 191, N-(4-(2-(1-(2-(methylthio)propanoyl)piperidin-2-yl)-1H-imidazol-4-yl)phenyl)methanesulfonamide] | 1000 to 35000
CSC(C)C(=O)N1CCCCC1c1nc(-c2ccccc2Cl)c[nH]1 (stereo not drawn) [Compound 21, 1-(2-(4-(2-chlorophenyl)-1H-imidazol-2-yl)piperidin-1-yl)-2-(methylthio)propan-1-one] | < 50
C=CCSC(C)C(=O)N1CCCCC1c1ncc(-c2ccc(C)cc2)[nH]1 (stereo not drawn) [Compound 92, 2-(allylthio)-1-(2-(5-(p-tolyl)-1H-imidazol-2-yl)piperidin-1-yl)propan-1-one] | < 50
Cc1ccc(-c2cnc(C3CCCCN3C(=O)C(C)(C)C(C)C)[nH]2)cc1 (stereo not drawn) [Compound 141, 2,2,3-trimethyl-1-(2-(5-(p-tolyl)-1H-imidazol-2-yl)piperidin-1-yl)butan-1-one] | < 50
CCC(C)C(=O)N1CCCCC1c1ncc(-c2cccc(C)c2)[nH]1 (stereo not drawn) [Compound 201, 2-methyl-1-(2-(5-(m-tolyl)-1H-imidazol-2-yl)piperidin-1-yl)butan-1-one] | 50 to 300
COc1ccc(-c2cnc(C3CCCCN3C(=O)C(C)SC)[nH]2)c(C)c1 (stereo not drawn) [Compound 80, 1-(2-(5-(4-methoxy-2-methylphenyl)-1H-imidazol-2-yl)piperidin-1-yl)-2-(methylthio)propan-1-one] | < 50
CSC(C)C(=O)N1CCCCC1c1nc(-c2ccc(C3CCC3)cc2)c[nH]1 (stereo not drawn) [Compound 36, 1-(2-(4-(4-cyclobutylphenyl)-1H-imidazol-2-yl)piperidin-1-yl)-2-(methylthio)propan-1-one] | < 50
CSC(C)C(=O)N1CCCCC1c1ncc(-c2ccc(CO)cc2)[nH]1 (stereo not drawn) [Compound 73, 1-(2-(5-(4-(hydroxymethyl)phenyl)-1H-imidazol-2-yl)piperidin-1-yl)-2-(methylthio)propan-1-one] | 300 to 1000

The remaining lines, values ahead:

EC50 [nM] | SMILES
300 to 1000 | O=C(N1CCCCC1c1nc(-c2ccccc2)c[nH]1)C12CC(C1)C2 (stereo not drawn) [Compound 184, bicyclo[1.1.1]pentan-1-yl(2-(4-phenyl-1H-imidazol-2-yl)piperidin-1-yl)methanone]
300 to 1000 | CC(C)C(=O)N1CCCCC1c1nc(-c2ccccc2)c[nH]1 (stereo not drawn) [Compound 162, 2-methyl-1-(2-(4-phenyl-1H-imidazol-2-yl)piperidin-1-yl)propan-1-one]
50 to 300 | CCC(CC)C(=O)N1CCCCC1c1nc(-c2ccccc2)c[nH]1 (stereo not drawn) [Compound 155, 2-ethyl-1-(2-(4-phenyl-1H-imidazol-2-yl)piperidin-1-yl)butan-1-one]
1000 to 35000 | CC(F)(F)CC(=O)N1CCCCC1c1nc(-c2ccccc2)c[nH]1 (stereo not drawn) [Compound 177, 3,3-difluoro-1-(2-(4-phenyl-1H-imidazol-2-yl)piperidin-1-yl)butan-1-one]
50 to 300 | O=C(Cc1ccoc1)N1CCCCC1c1nc(-c2ccccc2)c[nH]1 (stereo not drawn) [Compound 98]
1000 to 35000 | O=C(CC(F)(F)C(F)(F)F)N1CCCCC1c1nc(-c2ccccc2)c[nH]1 (stereo not drawn) [Compound 176, 3,3,4,4,4-pentafluoro-1-(2-(4-phenyl-1H-imidazol-2-yl)piperidin-1-yl)butan-1-one]
300 to 1000 | O=C(C1CCCC1)N1CCCCC1c1nc(-c2ccccc2)c[nH]1 (stereo not drawn) [Compound 186, cyclopentyl(2-(4-phenyl-1H-imidazol-2-yl)piperidin-1-yl)methanone]
50 to 300 | Cc1ccc(C(C)C(=O)N2CCCCC2c2nc(-c3ccccc3)c[nH]2)o1 (stereo not drawn) [Compound 91, 2-(5-methylfuran-2-yl)-1-(2-(4-phenyl-1H-imidazol-2-yl)piperidin-1-yl)propan-1-one]
50 to 300 | CC=C(CC)C(=O)N1CCCCC1c1nc(-c2ccccc2)c[nH]1 (stereo not drawn) [Compound 154, 2-ethyl-1-(2-(4-phenyl-1H-imidazol-2-yl)piperidin-1-yl)but-2-en-1-one]
50 to 300 | CCC(C)C(=O)N1CCCCC1c1nc(-c2ccccc2)c[nH]1 (stereo not drawn) [Compound 161, 2-methyl-1-(2-(4-phenyl-1H-imidazol-2-yl)piperidin-1-yl)butan-1-one]
300 to 1000 | CCOC1CC1C(=O)N1CCCCC1c1nc(-c2ccccc2)c[nH]1 (stereo not drawn) [Compound 4, (2-ethoxycyclopropyl)(2-(4-phenyl-1H-imidazol-2-yl)piperidin-1-yl)methanone]
1000 to 35000 | CC(C(=O)N1CCCCC1c1nc(-c2ccccc2)c[nH]1)S(C)(=O)=O (stereo not drawn) [Compound 103, 2-(methylsulfonyl)-1-(2-(4-phenyl-1H-imidazol-2-yl)piperidin-1-yl)propan-1-one]
300 to 1000 | CSCC(=O)N1CCCCC1c1nc(-c2ccccc2)c[nH]1 (stereo not drawn) [Compound 118, 2-(methylthio)-1-(2-(4-phenyl-1H-imidazol-2-yl)piperidin-1-yl)ethan-1-one]
